Tests used:
HIV [1] = format: cell-based
TNF-α [2] = assay: TNF-α production by monocytes of HIV-positive donors; format: cell-based, human
Description: (§1) The effects of flavopereirine on the production of primary (IL-1β and TNF-α) and secondary (IL-6) cytokines by monocytes was also tested. The adhesive monocytes used were taken from the blood of two types of donors:
HIV-positive donors from medical consultations. These individuals were in the early stages of HIV infection and, at the moment of taking the blood, were not undergoing any treatment. The risk factors involved were intravenous drug abuse for six of the donors, sexual transmission for three and blood transfusion (in Zaire) for one patient. No correlation was found between the risk factors and the results of the experiments.
The response of the monocytes taken from the various HIV-positive donors was tested in terms of spontaneous response. The quantities of cells received were low (the donors were not affected by cytapheresy), and the experiments were therefore limited by the number of cells available.

interleukin-6 = assay: IL-6 production by monocytes of normal donors; format: cell-based, human
Description: as §1
Normal donors--voluntary blood donors who attended the blood bank of the Pitie-Salpetriere Hospital, Paris, France; and […]

HIV-1 = assay: microbe, parasite or virus in culture; details: Human immunodeficiency virus 1, PBMC, read-out: concentration totally inhibiting replication of HIV-1
in vivo = details: for LD50 at 336 h / LD50 safety limits: rat, in vivo
Description: In accordance with the invention, flavopereirine is administered orally in the forms of capsules to patients infected with HIV at levels of 1-3 grams per day.

[3] = Penetration of the blood-brain barrier (encephalic content); format: in vivo, male CDI mice; details: 10 mg orally
HIV-1 BRE1 (HIV-1Asym.) = assay: HIV P24 production, target PBMC pretreated, isolate BRE1; format: cell-based; details: for Post-infection production of HIV P24: PBMC + 30 μg/ml 2 hours
Description: (§2) To test the efficacy of flavopereirine on the infectious capability of HIV-1, two experiments were conducted. […] After 2 hours of incubation, the cells were rinsed twice and cultivated in 1 ml of RPMI 1640 containing 20 IU of IL-2 per ml (Boehringer […], Germany), 2 μg of Polybrene (hexadimethrine bromide) per ml (Sigma, St. Louis, Mo., USA) and 10^-7 IU of goat antiserum acting against human alpha interferon (Janssen, Beerse, Belgium) per ml. Half the culture was changed after 72 hours, and thereafter every 48 hours until the 30th day. […] The surface material of the culture was tested by an immuno-enzymatic (ELISA) assay for the production of antigen P24 (Abbott, Chicago, Ill., USA) and the optical density (OD) of the resulting color was converted into P24 concentration from the slope of a standard nomogram, as described by W. Lu and J. -M. Andrieu, Journal of Virology, 66(1): 334-340 (1992).

HIV [4] = details: human, in vivo
[5] = Sub-chronic administration toxicity in rats; format: in vivo, male and female Sprague-Dawley rats (OPA); details: 530 and 2120 mg/kg/day
Source text: No lesions of the liver, kidneys, duodenum, myocardia, spleen, thyroid and parathyroid glands, testicles or ovaries were visible by microscope.

H-9 cells = assay: Multiplication of non-infected H-9 cells; format: cell-based; details: 30 and 60 μg/ml
HIV-1 TIG2 (HIV-1AIDS) = assay: HIV P24 production in PBMC, viral inoculum pretreated, isolate TIG2; format: cell-based; details: virus pretreated with 30 or 60 μg/ml
Description: as §2

TNF-α [6] = assay: TNF-α production by monocytes of normal donors; format: cell-based, human
Description: as §1
Normal donors--voluntary blood donors who attended the blood bank of the Pitie-Salpetriere Hospital, Paris, France; and
Product H was not used in these experiments at a rate of more than 20 μg/ml water, since above this rate, net toxicity could have been produced.

[7] = system: human PBMC stimulated with PHA (blasts); assay: Cytotoxicity in PHA-stimulated PBMC with or without human AB serum; format: cell-based
Description: The cytotoxicity of flavopereirine (compound H) in human PBMC stimulated with PHA was tested in the presence and absence of human AB serum as shown in Table IX.

SMILES: CCc1ccc2c3[nH]c4ccccc4c3cc[n+]2c1 [flavopereirine]
- infectious units detectable (HIV [1]): ≤ 3000
- inhibition of infection (HIV [1]): exceeds 99%
- reduction in quantity of infected cells (HIV [1]; h-9 cells): around 40%
- indirect activity on production of TNF-α (TNF-α [2]; 20 μg/ml only, p<0.05): almost total reduction in the production of TNF-α
- direct activity on base production of TNF-α (TNF-α [2]; HIV-positive donors): No modification on the base production was observed
- activity on cytokine production (interleukin-6; doses of less than 5 μg/ml, first two normal donors, cytokine not specified): inactive
- direct activity on production of interleukin-6 (interleukin-6; normal donors): No modification in response was observed
- indirect activity on production of IL-6 (interleukin-6; stimulated monocytes, dose-dependent, never total, P<0.05): sharp reduction in the production of IL-6
- IC100 (HIV-1): 60 to 100 µg/mL
- LD50 at 336 h (in vivo; ip): 2450 mg/kg
- LD50 safety limits (in vivo; ip): 2350 to 2550 mg/kg
- LD50 at 336 h (in vivo; po): 10400 mg/kg
- LD50 safety limits (in vivo; po): 9630 to 11350 mg/kg
- change in mortality rate (in vivo; subsequent 14 days, surviving animals): No change in mortality rate
- encephalic flavopereirine concentration ([3]; 20 g mice, brains 0.5 g): 14 µg/g
- encephalic flavopereirine content ([3]; mice): approximately 7 μg
- penetration of the blood-brain barrier ([3]; mice): observed to penetrate the blood-brain barrier
- Post-infection production of HIV P24 (HIV-1 BRE1 (HIV-1Asym.); d3): 113 ± 7 pg/mL
- Post-infection production of HIV P24 (HIV-1 BRE1 (HIV-1Asym.); d5): > 1500 pg/mL
- inhibition of productive viral infections (HIV-1 BRE1 (HIV-1Asym.); target PBMC pretreated with 60 μg/ml only): complete inhibition of productive viral infections
- CD2 (HIV [4]): Increase
- CD4 (HIV [4]): Increase
- CD4+ cells (HIV [4]): significant increase
- CD8 (HIV [4]): Increase
- CD19 (HIV [4]): Increase
- CD19+ cells (HIV [4]): significant increase
- Karnofsky's index (HIV [4]): ~100%
- blood or renal toxicity (HIV [4]): Neither blood nor renal toxicity was observed
- degradation in CDC classification (HIV [4]): No degradation in the CDC classification
- effect on viral infectional capacity of HIV (HIV [4]): significant inhibitory effect on the viral infectional capacity of HIV
- hemoglobin (HIV [4]): Increase
- infections (HIV [4]): no infections were noticed
- microglobulin beta-2 (HIV [4]): Increase
- modification in ALAT or ASAT (HIV [4]): nor was there any significant modification in ALAT or ASAT
- patients with negative decline in CD4+ reversed (HIV [4]): 18 out of 19
- physical and professional activity (HIV [4]): remained completely normal
- red cells (HIV [4]): Increase
- side effects (HIV [4]): Side effects were few, occurring only in the first three months
- total lymphocyte mass (HIV [4]): Increase
- toxic or side effects (HIV [4]; po): devoid of toxic or side effects
- alteration in globular blood count [5]: Neither was any alteration in the globular blood count noted
- alterations in body weight or feeding [5]: no alterations were noted in either body weight or feeding
- hepatic and renal functions [5]: remained normal
- lesions of liver, kidneys, duodenum, myocardia, spleen, thyroid, parathyroid, testicles, ovaries ([5]; microscope): No lesions
- multiplication of non-infected cells (H-9 cells): does not affect the multiplication of non-infected cells
- infection of target PBMC (HIV-1 TIG2 (HIV-1AIDS)): completely prevented the infection of target PBMC
- direct activity on production of TNF-α (TNF-α [6]; donor 7, one dose only): Increase in the production of TNF-α
- indirect activity on production of TNF-α (TNF-α [6]; stimulated monocytes, heavy dosage only (20 βg/ml as printed), p<0.05): sharp reduction in production
- viability of blast PBMC ([7]; 200 μg/ml, p<0.001): diminished significantly
- significant reduction of viability of blast PBMC ([7]; 100, 60, 30 and 10 μg/ml): this was not the case

From US5519028A, “Antiviral preparations” (priority 1992, dated 1996)
